# According to US7563592B2, “Alizarin-based chromogenic substrates, their uses and composition containing same” (Biomerieux, S.A., priority 1999, dated 2009):
# What was measured:
# Assay in all cases: Effect of metal salts on the color of the marker part, substrate 50 mg/l in Columbia medium (Example 3)
# Assay type in all cases: cell-based
# Listeria innocua 036 = tested on: Listeria innocua 036
# Method: (§1) To the Columbia-base medium (46.37 g/l) supplemented with Alizarin-2-β-D-glucoside (50 mg/l), were added either Manganese chloride, Ammoniacal iron citrate, Tin chloride, or Aluminum sulfate, all at a concentration of 50 mg/l. A control medium with no metal salts was tested in parallel. After autoclaving, these various media were all used to prepare Petri dishes (20 ml per plate). […] It should be pointed out that intensity readings are in arbitrary units. The only purpose of giving these values is to make it possible to compare one strain with another in this respect. The same is true for the examples which follow. Similarly, the strains tested were taken from the Applicant's collection and the number given represents an internal reference specific to this collection. The same internal numbering system is also used in some of the examples given later on.
# Listeria ivanovii 032 = tested on: Listeria ivanovii 032
# Method: as §1
# [1] = tested on: Listeria monocytogenes 079
# Method: as §1
# [2] = tested on: Listeria monocytogenes 081
# Method: as §1
# Listeria seeligeri 011 = tested on: Listeria seeligeri 011
# Method: as §1
# Listeria welshimeri 023 = tested on: Listeria welshimeri 023
# Method: as §1
# [3] = Manganese chloride 50 mg/l, 24 H
# [4] = Manganese chloride 50 mg/l, 48 H
structure (smiles),measurement,setting,value
O=C1c2ccccc2C(=O)c2c1ccc(O[C@@H]1O[C@H](CO)[C@@H](O)[C@H](O)[C@H]1O)c2O [Alizarin-2-β-D-glucoside],Color,"Listeria innocua 036; Aluminum sulfate 50 mg/l, 24 H",red
same,Intensity,"Listeria innocua 036; Aluminum sulfate 50 mg/l, 24 H",4 arbitrary units
same,Color,"Listeria innocua 036; Aluminum sulfate 50 mg/l, 48 H",red
same,Intensity,"Listeria innocua 036; Aluminum sulfate 50 mg/l, 48 H",4 arbitrary units
same,Color,"Listeria innocua 036; Control, no metal salt, 24 H",purple
same,Intensity,"Listeria innocua 036; Control, no metal salt, 24 H",2.3 arbitrary units
same,Color,"Listeria innocua 036; Control, no metal salt, 48 H",purple
same,Intensity,"Listeria innocua 036; Control, no metal salt, 48 H",2.7 arbitrary units
same,Color,"Listeria innocua 036; Iron citrate 50 mg/l, 24 H",purple
same,Intensity,"Listeria innocua 036; Iron citrate 50 mg/l, 24 H",4 arbitrary units
same,Color,"Listeria innocua 036; Iron citrate 50 mg/l, 48 H",purple
same,Intensity,"Listeria innocua 036; Iron citrate 50 mg/l, 48 H",4 arbitrary units
same,Color,Listeria innocua 036; [3],purple
same,Intensity,Listeria innocua 036; [3],2.3 arbitrary units
same,Color,Listeria innocua 036; [4],purple
same,Intensity,Listeria innocua 036; [4],2.7 arbitrary units
same,Color,"Listeria innocua 036; Tin chloride 50 mg/l, 24 H",orange
same,Intensity,"Listeria innocua 036; Tin chloride 50 mg/l, 24 H",3 arbitrary units
same,Color,"Listeria innocua 036; Tin chloride 50 mg/l, 48 H",orange
same,Intensity,"Listeria innocua 036; Tin chloride 50 mg/l, 48 H",4 arbitrary units
same,Color,"Listeria ivanovii 032; Aluminum sulfate 50 mg/l, 24 H",red
same,Intensity,"Listeria ivanovii 032; Aluminum sulfate 50 mg/l, 24 H",4 arbitrary units
same,Color,"Listeria ivanovii 032; Aluminum sulfate 50 mg/l, 48 H",red
same,Intensity,"Listeria ivanovii 032; Aluminum sulfate 50 mg/l, 48 H",4 arbitrary units
same,Color,"Listeria ivanovii 032; Control, no metal salt, 24 H",purple
same,Intensity,"Listeria ivanovii 032; Control, no metal salt, 24 H",2.3 arbitrary units
same,Color,"Listeria ivanovii 032; Control, no metal salt, 48 H",purple
same,Intensity,"Listeria ivanovii 032; Control, no metal salt, 48 H",2.3 arbitrary units
same,Color,"Listeria ivanovii 032; Iron citrate 50 mg/l, 24 H",purple
same,Intensity,"Listeria ivanovii 032; Iron citrate 50 mg/l, 24 H",4 arbitrary units
same,Color,"Listeria ivanovii 032; Iron citrate 50 mg/l, 48 H",purple
same,Intensity,"Listeria ivanovii 032; Iron citrate 50 mg/l, 48 H",4 arbitrary units
same,Color,Listeria ivanovii 032; [3],purple
same,Intensity,Listeria ivanovii 032; [3],2.3 arbitrary units
same,Color,Listeria ivanovii 032; [4],purple
same,Intensity,Listeria ivanovii 032; [4],2.3 arbitrary units
same,Color,"Listeria ivanovii 032; Tin chloride 50 mg/l, 24 H",orange
same,Intensity,"Listeria ivanovii 032; Tin chloride 50 mg/l, 24 H",3 arbitrary units
same,Color,"Listeria ivanovii 032; Tin chloride 50 mg/l, 48 H",orange
same,Intensity,"Listeria ivanovii 032; Tin chloride 50 mg/l, 48 H",4 arbitrary units
same,Color,"[1]; Aluminum sulfate 50 mg/l, 24 H",red
same,Intensity,"[1]; Aluminum sulfate 50 mg/l, 24 H",4 arbitrary units
same,Color,"[1]; Aluminum sulfate 50 mg/l, 48 H",red
same,Intensity,"[1]; Aluminum sulfate 50 mg/l, 48 H",4 arbitrary units
same,Color,"[1]; Control, no metal salt, 24 H",purple
same,Intensity,"[1]; Control, no metal salt, 24 H",2.3 arbitrary units
same,Color,"[1]; Control, no metal salt, 48 H",purple
same,Intensity,"[1]; Control, no metal salt, 48 H",2.3 arbitrary units
same,Color,"[1]; Iron citrate 50 mg/l, 24 H",purple
same,Intensity,"[1]; Iron citrate 50 mg/l, 24 H",4 arbitrary units
same,Color,"[1]; Iron citrate 50 mg/l, 48 H",purple
same,Intensity,"[1]; Iron citrate 50 mg/l, 48 H",4 arbitrary units
same,Color,[1]; [3],purple
same,Intensity,[1]; [3],2.7 arbitrary units
same,Color,[1]; [4],purple
same,Intensity,[1]; [4],2.7 arbitrary units
same,Color,"[1]; Tin chloride 50 mg/l, 24 H",orange
same,Intensity,"[1]; Tin chloride 50 mg/l, 24 H",3.5 arbitrary units
same,Color,"[1]; Tin chloride 50 mg/l, 48 H",orange
same,Intensity,"[1]; Tin chloride 50 mg/l, 48 H",4 arbitrary units
same,Color,"[2]; Aluminum sulfate 50 mg/l, 24 H",red
same,Intensity,"[2]; Aluminum sulfate 50 mg/l, 24 H",4 arbitrary units
same,Color,"[2]; Aluminum sulfate 50 mg/l, 48 H",red
same,Intensity,"[2]; Aluminum sulfate 50 mg/l, 48 H",4 arbitrary units
same,Color,"[2]; Control, no metal salt, 24 H",purple
same,Intensity,"[2]; Control, no metal salt, 24 H",2.3 arbitrary units
same,Color,"[2]; Control, no metal salt, 48 H",purple
same,Intensity,"[2]; Control, no metal salt, 48 H",2.3 arbitrary units
same,Color,"[2]; Iron citrate 50 mg/l, 24 H",purple
same,Intensity,"[2]; Iron citrate 50 mg/l, 24 H",4 arbitrary units
same,Color,"[2]; Iron citrate 50 mg/l, 48 H",purple
same,Intensity,"[2]; Iron citrate 50 mg/l, 48 H",4 arbitrary units
same,Color,[2]; [3],purple
same,Intensity,[2]; [3],2.3 arbitrary units
same,Color,[2]; [4],purple
same,Intensity,[2]; [4],2.7 arbitrary units
same,Color,"[2]; Tin chloride 50 mg/l, 24 H",orange
same,Intensity,"[2]; Tin chloride 50 mg/l, 24 H",3 arbitrary units
same,Color,"[2]; Tin chloride 50 mg/l, 48 H",orange
same,Intensity,"[2]; Tin chloride 50 mg/l, 48 H",4 arbitrary units
same,Color,"Listeria seeligeri 011; Aluminum sulfate 50 mg/l, 24 H",red
same,Intensity,"Listeria seeligeri 011; Aluminum sulfate 50 mg/l, 24 H",4 arbitrary units
same,Color,"Listeria seeligeri 011; Aluminum sulfate 50 mg/l, 48 H",red
same,Intensity,"Listeria seeligeri 011; Aluminum sulfate 50 mg/l, 48 H",4 arbitrary units
same,Color,"Listeria seeligeri 011; Control, no metal salt, 24 H",purple
same,Intensity,"Listeria seeligeri 011; Control, no metal salt, 24 H",2.3 arbitrary units
same,Color,"Listeria seeligeri 011; Control, no metal salt, 48 H",purple
same,Intensity,"Listeria seeligeri 011; Control, no metal salt, 48 H",2.3 arbitrary units
same,Color,"Listeria seeligeri 011; Iron citrate 50 mg/l, 24 H",purple
same,Intensity,"Listeria seeligeri 011; Iron citrate 50 mg/l, 24 H",4 arbitrary units
same,Color,"Listeria seeligeri 011; Iron citrate 50 mg/l, 48 H",purple
same,Intensity,"Listeria seeligeri 011; Iron citrate 50 mg/l, 48 H",4 arbitrary units
same,Color,Listeria seeligeri 011; [3],purple
same,Intensity,Listeria seeligeri 011; [3],2.7 arbitrary units
same,Color,Listeria seeligeri 011; [4],purple
same,Intensity,Listeria seeligeri 011; [4],2.7 arbitrary units
same,Color,"Listeria seeligeri 011; Tin chloride 50 mg/l, 24 H",orange
same,Intensity,"Listeria seeligeri 011; Tin chloride 50 mg/l, 24 H",3 arbitrary units
same,Color,"Listeria seeligeri 011; Tin chloride 50 mg/l, 48 H",orange
same,Intensity,"Listeria seeligeri 011; Tin chloride 50 mg/l, 48 H",4 arbitrary units
same,Color,"Listeria welshimeri 023; Aluminum sulfate 50 mg/l, 24 H",red
same,Intensity,"Listeria welshimeri 023; Aluminum sulfate 50 mg/l, 24 H",4 arbitrary units
same,Color,"Listeria welshimeri 023; Aluminum sulfate 50 mg/l, 48 H",red
same,Intensity,"Listeria welshimeri 023; Aluminum sulfate 50 mg/l, 48 H",4 arbitrary units
same,Color,"Listeria welshimeri 023; Control, no metal salt, 24 H",purple
same,Intensity,"Listeria welshimeri 023; Control, no metal salt, 24 H",2.3 arbitrary units
same,Color,"Listeria welshimeri 023; Control, no metal salt, 48 H",purple
same,Intensity,"Listeria welshimeri 023; Control, no metal salt, 48 H",2.3 arbitrary units
same,Color,"Listeria welshimeri 023; Iron citrate 50 mg/l, 24 H",purple
same,Intensity,"Listeria welshimeri 023; Iron citrate 50 mg/l, 24 H",4 arbitrary units
same,Color,"Listeria welshimeri 023; Iron citrate 50 mg/l, 48 H",purple
same,Intensity,"Listeria welshimeri 023; Iron citrate 50 mg/l, 48 H",4 arbitrary units
same,Color,Listeria welshimeri 023; [3],purple
same,Intensity,Listeria welshimeri 023; [3],2.3 arbitrary units
same,Color,Listeria welshimeri 023; [4],purple
same,Intensity,Listeria welshimeri 023; [4],2.7 arbitrary units
same,Color,"Listeria welshimeri 023; Tin chloride 50 mg/l, 24 H",orange
same,Intensity,"Listeria welshimeri 023; Tin chloride 50 mg/l, 24 H",3 arbitrary units
same,Color,"Listeria welshimeri 023; Tin chloride 50 mg/l, 48 H",orange
same,Intensity,"Listeria welshimeri 023; Tin chloride 50 mg/l, 48 H",4 arbitrary units
